Results on four molecules are retold here after patent US20230060581A1, “METHOD OF TREATING PANCREATIC CANCER” (CEDARS-SINAI MEDICAL CENTER, priority 2020, published 2023).

The structures appear in SMILES notation. “Also recorded” adds a separate entry of the source. Read-outs that look alike come from different tables or passages of the source.

The test system of one data set is CYP1A2 and CYP2C19. The note with it: metabolic pathway contribution; cited from earlier work.
For data set [1] the following is noted: humans; cited from earlier work.
The conditions of data set [2]: cited from earlier work; for dose absorbed: human.
The target in the next data set is T1, UGT1A1 (Homo sapiens, UniProt P22309).
T1 sequence (P22309 26-533): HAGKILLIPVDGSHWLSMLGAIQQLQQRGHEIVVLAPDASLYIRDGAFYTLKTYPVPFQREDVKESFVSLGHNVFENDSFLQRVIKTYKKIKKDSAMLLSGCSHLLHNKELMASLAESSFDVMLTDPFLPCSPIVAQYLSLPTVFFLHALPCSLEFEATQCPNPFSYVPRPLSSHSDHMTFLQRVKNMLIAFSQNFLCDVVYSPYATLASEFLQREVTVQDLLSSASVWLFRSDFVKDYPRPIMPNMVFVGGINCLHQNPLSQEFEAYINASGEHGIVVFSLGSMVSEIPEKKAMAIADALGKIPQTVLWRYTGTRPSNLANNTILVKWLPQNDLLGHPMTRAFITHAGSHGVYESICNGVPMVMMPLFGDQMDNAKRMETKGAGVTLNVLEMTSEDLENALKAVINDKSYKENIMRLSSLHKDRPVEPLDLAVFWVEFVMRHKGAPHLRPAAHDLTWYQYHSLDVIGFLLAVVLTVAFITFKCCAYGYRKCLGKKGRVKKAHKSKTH
The note with it: cited from earlier work.

For data set [3] the following is noted: in vivo; cited from earlier work.
The test system of another data set is P-gp and BCRP. The note with it: in vitro; cited from earlier work.
The test system of data set [4] is CYP3A4, CYP2C19, and CYP2D6. The settings on record: in vitro, cited from earlier work.
In data set [5] the test system is P-gp, BCRP, OATP1B1, OATP1B3, OAT1, OAT3 and OCT2. The settings on record: in vitro, cited from earlier work.
Data set [6] deals with CYP1A2, CYP2B6, CYP2C8, CYP2C9, CYP3A4 and UGT1A1. The note with it: cited from earlier work.
In a further data set the test system is CYP3A. The settings on record: concomitant administration; cited from earlier work.
The next data set addresses CYP3A4 (Homo sapiens, UniProt P08684). The settings on record: cited from earlier work.
Data set [7] deals with CYP2B6, CYP2C9 and CYP3A4. The settings on record: human primary hepatocytes; cited from earlier work.
For data set [8], the target named is BRAF N486_P490del (delta-NVTAP) (Homo sapiens, UniProt P15056, DEL486-490). The settings on record: experimentally, PMID: 26996308; cited from earlier work.
Sequence of BRAF N486_P490del (delta-NVTAP) (P15056 with tags, fused parts or gaps DEL486-490): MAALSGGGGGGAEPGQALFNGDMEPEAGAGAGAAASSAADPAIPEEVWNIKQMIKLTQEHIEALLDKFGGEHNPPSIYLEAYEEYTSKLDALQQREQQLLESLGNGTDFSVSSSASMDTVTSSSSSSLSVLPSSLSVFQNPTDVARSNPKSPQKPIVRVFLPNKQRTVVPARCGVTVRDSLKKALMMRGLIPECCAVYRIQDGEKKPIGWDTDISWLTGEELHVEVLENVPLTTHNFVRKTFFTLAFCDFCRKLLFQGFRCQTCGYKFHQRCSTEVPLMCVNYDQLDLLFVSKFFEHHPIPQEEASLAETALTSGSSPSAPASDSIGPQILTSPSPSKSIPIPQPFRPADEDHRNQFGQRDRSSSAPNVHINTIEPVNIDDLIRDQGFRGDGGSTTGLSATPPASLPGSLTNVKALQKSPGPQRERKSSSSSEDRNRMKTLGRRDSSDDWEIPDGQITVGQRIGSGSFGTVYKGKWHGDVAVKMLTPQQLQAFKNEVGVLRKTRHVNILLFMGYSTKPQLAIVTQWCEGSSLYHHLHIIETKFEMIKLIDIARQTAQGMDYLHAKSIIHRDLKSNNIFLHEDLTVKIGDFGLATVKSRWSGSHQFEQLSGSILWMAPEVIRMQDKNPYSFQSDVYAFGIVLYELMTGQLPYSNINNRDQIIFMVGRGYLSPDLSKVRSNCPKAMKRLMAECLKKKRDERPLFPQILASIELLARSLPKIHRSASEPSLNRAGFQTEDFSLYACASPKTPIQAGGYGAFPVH
The test system of a further data set is BRAF ΔNVTAP deletion. The settings on record: patients with ΔNVTAP deletion, clinical case reports; cited from earlier work.
For data set [9], the system named is BRAF-mutated pancreatic cancer. Description: Response and progression-free survival on BRAF/MEK/ERK-directed therapy, retrospective clinical case series. The note with it: patients with fusion abnormalities, single agent trametinib. The format is in vivo, human.
Source text: Each horizontal bar represents the time on therapy without disease progression (i.e. progression-free survival). […] Bars capped with arrows indicate lines of therapy that were continuing as of the last available progress note (censored event).
Individual patient charts were retrospectively reviewed, and clinical information was extracted.
Demographic, clinical descriptors, and outcomes data were collected under institution-specific IRB-approved protocols for each individual site. The data from each site was de-identified before being shared in a HIPAA-compliant database.
Demographic data, date of diagnosis, staging information, treatment history, and response to therapy were collected from all participating sites. Overall survival (OS) was calculated from the time of the patient's diagnosis of advanced PC (i.e. the date of recurrence following surgical resection or the date of initial diagnosis in the context of metastatic or unresectable disease) until death (survival event) or last follow-up (censored event). […] Progression-free survival (PFS) was calculated from the time of initiation of a therapy until discontinuation due to disease progression (survival event), cessation due to tolerability issues (censored event), or the last follow-up (censored event).
All survival analysis methods were implemented in an R/Bioconductor programming environment. […]

Sequence of CYP3A4 (P08684 whole entry): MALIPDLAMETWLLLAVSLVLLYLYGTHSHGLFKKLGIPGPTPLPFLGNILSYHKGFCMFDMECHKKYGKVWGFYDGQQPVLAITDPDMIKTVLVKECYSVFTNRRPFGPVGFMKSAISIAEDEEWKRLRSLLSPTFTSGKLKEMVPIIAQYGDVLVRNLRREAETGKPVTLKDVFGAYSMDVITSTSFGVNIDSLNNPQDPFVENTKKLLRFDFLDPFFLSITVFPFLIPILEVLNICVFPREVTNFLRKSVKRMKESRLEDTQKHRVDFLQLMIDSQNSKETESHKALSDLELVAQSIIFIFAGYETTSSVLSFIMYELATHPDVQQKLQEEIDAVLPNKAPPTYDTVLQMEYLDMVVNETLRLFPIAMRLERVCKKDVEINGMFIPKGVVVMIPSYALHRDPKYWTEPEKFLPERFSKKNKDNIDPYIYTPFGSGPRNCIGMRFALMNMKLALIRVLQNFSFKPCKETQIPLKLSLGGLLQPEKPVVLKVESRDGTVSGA

With `Cn1cnc2c(F)c(Nc3ccc(Br)cc3F)c(C(=O)NOCCO)cc21` [Binimetinib], the “N-dealkylation via CYP1A2 and CYP2C19” value with CYP1A2 and CYP2C19 is listed as “up to 17.8%”. Besides, in data set [1], the blood-to-plasma concentration ratio is 0.718 and the “bound to plasma proteins” value is listed as 97.2%. The dose absorbed result in [2] was “approximately 50%”. For the same molecule, in data set [2] (in vivo), the accumulation result is recorded as “approximately 1.5 fold”, the “estimated renal clearance of unchanged drug” value was 6.3 % of total dose, the “excretion of unchanged drug in feces” value is 31.7% and the “excretion of unchanged drug in urine” value is listed as 18.4%. Further, the “time to steady state concentrations” value in [2] (in vivo) was no more than 15 days. Besides, on UGT1A1 (in vitro), the “primary route of metabolism” value is “primarily metabolized by glucuronidation through UGT1A1”. In addition, at UGT1A1 (metabolic pathway contribution), the “glucuronidation via UGT1A1” value is recorded as “up to 61.2%”. Further, the “known potential toxicities, Very Common (≥10%)” value in [3] is on record as “diarrhea, nausea, vomiting, fatigue, peripheral edema, increased AST, increased blood creatine phosphokinase, dermatitis acneiform, dry skin, pruritus, rash, decreased ejection fraction”. In the data set with P-gp and BCRP, the transporter substrate entry was “substrate of P-gp and BCRP; also recorded: substrate for P-gp and BCRP”.

Take `COC(=O)N[C@@H](C)CNc1nccc(-c2cn(C(C)C)nc2-c2cc(Cl)cc(NS(C)(=O)=O)c2F)n1` [Encorafenib]: the “metabolising enzymes and pathway” value was “metabolized by CYP3A4 and to a lesser extent by CYP2C19; also recorded: N-dealkylation is the primary metabolic pathway; CYP3A4 (primary), CYP2C19, and CYP2D6 (minor) contribute to total oxidative clearance in human liver microsomes” in data set [4]; “mainly metabolized by CYP3A” in data set [4] (listed as encorafenib). Moreover, the transporter inhibition entry is “potent inhibitor of the renal transporters, OAT1, OAT3 and OCT2, and the hepatic transporters OATP1B1 and OATP1B3” in [5]; “can potentially inhibit the transporters P-gp, BCRP, OATP1B1, OATP1B3, OAT1, OAT3 and OCT2 at clinical concentrations” in data set [5] (listed as encorafenib). Moreover, in data set [6], the reversible enzyme inhibition result was “reversible inhibitor of CYP1A2, CYP2B6, CYP2C8, CYP2C9, CYP3A4 and UGT1A1”. Moreover, in [2], the dose absorbed entry is “At least 86%”. For the same molecule, the “excretion, feces” value in data set [2] (in vivo) is listed as 39%. In data set [2] (in vivo), the “excretion, urine” value is recorded as 47.2%. Moreover, the “effect of strong or moderate CYP3A inhibitors on exposure” value in the data set with CYP3A is on record as “may increase encorafenib plasma concentration”. Further, the time-dependent enzyme inhibition result on CYP3A4 was “time-dependent inhibitor of CYP3A4”. The transporter substrate result with P-gp and BCRP is on record as “substrate of the transporter P-gp”. In addition, in data set [7], the enzyme induction entry is “induced CYP2B6, CYP2C9 and CYP3A4”.

For `CC(C)(C)c1nc(-c2cccc(NS(=O)(=O)c3c(F)cccc3F)c2F)c(-c2ccnc(N)n2)s1` [dabrafenib], the “Implications for BRAF Inhibitors: dabrafenib sensitivity” value in data set [8] is given as “sensitive;”. Besides, in the data set with BRAF ΔNVTAP deletion, the clinical activity result is listed as “significant activity”.

As for `CC(=O)Nc1cccc(-n2c(=O)n(C3CC3)c(=O)c3c(Nc4ccc(I)cc4F)n(C)c(=O)c(C)c32)c1` [trametinib], the “patients having disease control” value in data set [9] is recorded as 4/6.
